“And” between values parts separate entries of the source, which are not always exact repeats. Equal entries are not always repeated. Where two headings read alike, the source gives them in different places.
How the values were obtained:
Mcl-1 = Mcl-1 (Homo sapiens (Human), UniProt Q07820); assay: Fluorescence polarization competition assay (FPCA), Mcl-1 / FITC-Bak BH3 peptide; type: binding; conditions: for Mcl-1 Exp ΔG: ΔG=−RTlnKi from experimental Ki
Text: The tagged protein was initially purified from the crude cell lysate by immobilized metal affinity chromatography (IMAC) chromatography (GE Healthcare Life Sciences), and after dialysis to remove the imidazole the affinity tag was cleaved using PreScission Protease (GE Healthcare Life Sciences). A Sephacryl S-200 size exclusion column was used as a final purification step before the protein was concentrated with a 10,000 MWCO centifugal filter concentrator (Millipore).
(§1) Fluorescence polarization experiments were conducted using a BMG PHERAstar FS multimode microplate reader equipped with two PMTs for simultaneous measurements of the perpendicular and parallel fluorescence emission. The assays were performed in black polypropylene 384-well microplate (Costar) with a final volume of 20 microliter. […] Regression analysis was carried out using Origin (OriginLab, Northampton, Mass.) to fit the data to the Hill equation (1) to determine the initial binding affinity (KD) and the IC50 in the FPCA. For the fluorescence polarization competition titrations, an equation derived by Nikolovska-Coleska et al. was used to calculate the Ki from the IC50 data.
The target molecules were assayed for their abilities to disrupt the Mcl-1-Bak-BH3 PPI in a fluorescence polarization competition (FPC) assay with Mcl-1 and FITC-labeled Bak-BH3 peptide. Further details on the FPC assay can be found in the Supporting Information.

Bcl-xL = Bcl-xL (Homo sapiens (Human), UniProt Q07817); assay: Fluorescence polarization competition assay, Bcl-xL; type: binding; conditions: for Ki: Ki from IC50 by Nikolovska-Coleska equation, NA = no activity, read-out: Bcl-xL Ki
Bcl-xL, sequence (Q07817 whole entry): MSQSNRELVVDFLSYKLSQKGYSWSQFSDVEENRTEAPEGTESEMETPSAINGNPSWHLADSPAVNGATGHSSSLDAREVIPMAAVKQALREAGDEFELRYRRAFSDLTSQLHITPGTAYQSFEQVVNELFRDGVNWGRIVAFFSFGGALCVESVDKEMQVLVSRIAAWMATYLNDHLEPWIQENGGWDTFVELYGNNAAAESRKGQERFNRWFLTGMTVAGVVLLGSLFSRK
Method: as §1

[1] = FPCA with FITC-Bak, Ki from IC50 by Nikolovska-Coleska equation, read-out: Mcl-1 Ki

Mcl-1, sequence (Q07820 172-327): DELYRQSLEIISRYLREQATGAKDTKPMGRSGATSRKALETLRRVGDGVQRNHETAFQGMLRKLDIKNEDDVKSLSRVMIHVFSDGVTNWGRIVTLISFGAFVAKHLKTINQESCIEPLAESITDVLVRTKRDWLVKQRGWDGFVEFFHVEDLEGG

## CC(C)CN(c1ccc(O)c(C(=O)O)c1)S(=O)(=O)c1ccc2ccccc2c1 [jy-5-299 18bb]
Mcl-1; [1]
  Ki: 7.51 ± 0.84 µM
Bcl-xL
  Ki: 44.6 ± 5.93 µM

## Cc1cc(Oc2ccc(N(Cc3ccccc3)S(=O)(=O)c3cc(C(=O)O)c(O)c4ccccc34)cc2)cc(C)c1Cl [3bl; JY-5-380]
Mcl-1
  Mcl-1 Exp ΔG: -10.24 kcal/mol
Bcl-xL; ΔG from experimental Ki
  Bcl-xL Exp ΔG: -8.82 kcal/mol

## CC(C)CN(c1ccc(C(=O)O)c(O)c1)S(=O)(=O)c1ccc(-c2ccccc2)cc1 [4jc117-4 13ac]
Mcl-1; [1]
  Ki: 4.11 ± 0.245 µM
Bcl-xL
  Ki: 10.8 ± 2.55 µM

## CC(C)CN(c1ccc(C(=O)O)c(O)c1)S(=O)(=O)c1ccc2ccccc2c1 [4jc117-3 13ab]
Mcl-1; [1]
  Ki: 13.8 ± 1.32 µM
Bcl-xL
  Ki: 43.1 ± 14.7 µM

## Cc1cc(Oc2ccc(S(=O)(=O)N(Cc3ccccc3)c3ccc(O)c(C(=O)O)c3)cc2)cc(C)c1Cl [LC-5-129 29]
Mcl-1; [1]
  Ki: 1.4 ± 0.47 µM
Bcl-xL
  Ki: 1.82 ± 0.234 µM

## CC(C)CN(c1ccc(O)c(C(=O)O)c1)S(=O)(=O)c1ccccc1 [JY-5-296 18ba]
Mcl-1; [1]
  Ki: 46.5 ± 9.82 µM
Bcl-xL
  Ki: 49.3 ± 5.03 µM

## CC(C)CN(c1ccc(O)c(C(=O)O)c1)S(=O)(=O)c1ccc(-c2ccccc2)cc1 [JY-5-300 18bc]
Mcl-1; [1]
  Ki: 8.7 ± 2.05 µM
Bcl-xL
  Ki: 13.9 ± 3.36 µM

## Cc1cc(Oc2ccc(S(=O)(=O)N(Cc3ccccc3)c3ccc(O)c(C(=O)NS(=O)(=O)c4ccc(NCC5CCOCC5)c([N+](=O)[O-])c4)c3)cc2)cc(C)c1Cl [LC-5-132 33]
Mcl-1; [1]
  Ki: 1.01 ± 0.08 µM
Bcl-xL
  Ki: 1.54 ± 0.226 µM

## O=C(NS(=O)(=O)c1ccc(NCC2CCOCC2)c([N+](=O)[O-])c1)c1ccc(N(Cc2ccccc2)S(=O)(=O)c2ccc(Oc3ccccc3)cc2)cc1O [LC-5-107 30]
Mcl-1; [1]
  Ki: 1.23 ± 0.152 µM
Bcl-xL
  Ki: 1.05 ± 0.146 µM

## O=C(NS(=O)(=O)c1ccccc1)c1ccc(N(Cc2ccccc2)S(=O)(=O)c2ccc(Oc3ccccc3)cc2)cc1O [LC-5-096 28]
Mcl-1; [1]
  Ki: 1.9 µM and 1.95 µM
Bcl-xL
  Ki: 2.34 ± 0.221 µM

## Cc1cc(Oc2ccc(S(=O)(=O)N(c3ccc(C(=O)O)c(O)c3)C3CCCC3)cc2)cc(C)c1Cl [LC-4-104 13bc]
Mcl-1; [1]
  Ki: 1.76 ± 0.208 µM
Bcl-xL
  Ki: 1.91 ± 0.117 µM

## O=C(O)C1Cc2ccccc2N(S(=O)(=O)c2ccc(Br)cc2)C1 (racemic) [SF-5-135, (±)-1-((4-bromophenyl)sulfonyl)-1,2,3,4-tetrahydroquinoline-3-carboxylic acid]
Mcl-1; read-out: Mcl-1 Ki
  Ki: > 1000 µM

## Cc1cc(Oc2ccc(S(=O)(=O)N(CC(C)C)c3ccc(C(=O)O)cc3)cc2)cc(C)c1Cl [LC-3-035 8e]
Mcl-1; [1]
  Ki: 2.06 ± 0.118 µM

## O=C(O)c1ccc(N(Cc2ccccc2)S(=O)(=O)c2ccc3ccccc3c2)cc1O [LC-4-113 13ca]
Mcl-1; [1]
  Ki: 11.4 ± 1.57 µM

## Cc1cc(CCCNc2ccc(C(=O)O)c(O)c2)cc(C)c1Cl [LC-5-184 36]
Mcl-1; [1]
  Ki: 15.2 ± 1.89 µM
Bcl-xL
  Ki: 22.7 ± 4.08 µM

## O=C(O)c1cc(S(=O)(=O)N2CCCCC2)c2ccccc2c1O [3i; SF-5-263]
Mcl-1
  Mcl-1 Exp ΔG: -7.54 kcal/mol

## CC(C)c1ccc(NS(=O)(=O)c2cc(C(=O)O)c(O)c3ccccc23)cc1 [3y; 5JC74-2]
Mcl-1
  Mcl-1 Exp ΔG: -7.38 kcal/mol

## O=C(O)c1cc(S(=O)(=O)Nc2ccc(Cl)cc2)c2ccccc2c1O [Compound 3v, 4-(N-(4-Chlorophenyl)sulfamoyl)-1-hydroxy-2-naphthoic Acid]
Mcl-1; [1]
  Ki: 1.91 ± 0.26 µM

## O=C(O)c1cc(S(=O)(=O)Nc2ccc(C(F)(F)F)cc2)c2ccccc2c1O [3w; 5JC73-1]
Mcl-1
  Mcl-1 Exp ΔG: -7.64 kcal/mol

## Cc1cc(Oc2ccc(S(=O)(=O)N(CC(C)C)c3ccc(C(=O)O)cc3)cc2)cc(C)c1Cl [LC-3-035, 4-(4-(4-chloro-3,5-dimethylphenoxy)-N-isobutylphenylsulfonamido)benzoic acid]
Mcl-1; fluorescence polarization competition assay, read-out: Ki (μM) Mcl-1
  Ki: 0.261 ± 0.558 µM

## CC(C)CN(c1cccc(C(=O)O)c1)S(=O)(=O)c1ccc(-c2ccccc2)cc1 [4jc177-4 18ac]
Mcl-1; [1]
  Ki: > 500 µM

## Cc1ccc(S(=O)(=O)N(CC(C)C)c2ccc(C(=O)O)c(O)c2)cc1 [Compound 4jc117-2, 2-hydroxy-4-(N-isobutyl-4-methylphenylsulfonamido)benzoic acid]
Mcl-1; read-out: Mcl-1 Ki
  Ki: 302 ± 31.8 µM

## COC(=O)c1cc(S(=O)(=O)N(CC(C)C)c2ccc(Br)cc2)c2ccccc2c1O [Compound 3cb, Methyl 4-(N-(4-bromophenyl)-N-isobutylsulfamoyl)-1-hydroxy-2-naphthoate]
Mcl-1; [1]
  Ki: > 500 µM
Mcl-1
  Mcl-1 Exp ΔG: >-4.50 kcal/mol

## CC(C)CN(c1ccc(C(=O)O)cc1)S(=O)(=O)c1ccc2ccccc2c1 [LC-3-031 8b]
Mcl-1; [1]
  Ki: > 500 µM

## O=C(O)c1cc(S(=O)(=O)Nc2ccccc2-c2ccccc2)c2ccccc2c1O [3r; LC-4-002]
Mcl-1
  Mcl-1 Exp ΔG: -6.91 kcal/mol

## O=C(O)c1ccc(N(C2CCCC2)S(=O)(=O)c2ccc(-c3ccccc3)cc2)cc1O [LC-4-082 13bb]
Mcl-1; [1]
  Ki: 5.24 ± 0.694 µM

## Cc1ccc(S(=O)(=O)N(CC(C)C)c2cccc(C(=O)O)c2)cc1 [4jc177-2 18ae]
Mcl-1; [1]
  Ki: 155 ± 14.7 µM

## O=C(O)C1Cc2ccccc2N(S(=O)(=O)c2ccc(F)cc2)C1 (racemic) [±-8c]
Mcl-1; [1]
  Ki: 176 ± 115 µM

## N#Cc1cccc(NS(=O)(=O)c2cc(C(=O)O)c(O)c3ccccc23)c1 [Compound 3ad, 4-(N-(3-Cyanophenyl)sulfamoyl)-1-hydroxy-2-naphthoic Acid]
Mcl-1; [1]
  Ki: 26.9 ± 0.6 µM

## N#Cc1ccc(NS(=O)(=O)c2cc(C(=O)O)c(O)c3ccccc23)cc1 [3ab; TA-1-018]
Mcl-1
  Mcl-1 Exp ΔG: -6.35 kcal/mol

## O=C(O)c1ccc2c(c1)CCCN2S(=O)(=O)c1ccc(Br)cc1 [LC-3-004, 1-((4-bromophenyl)sulfonyl)-1,2,3,4-tetrahydroquinoline-6-carboxylic acid]
Mcl-1; [1]
  Ki: 203 µM

## CN(C)S(=O)(=O)c1cc(C(=O)O)c(O)c2ccccc12 [3h; SF-5-295]
Mcl-1
  Mcl-1 Exp ΔG: -6.26 kcal/mol

## O=C(O)C1CNc2ccccc2C1 (racemic) [±-6, 1,2,3,4-tetrahydroquinoline-3-carboxylic acid]
Mcl-1; FPC assay, read-out: Mcl-1 Ki
  Ki: > 500 µM
Mcl-1; [1]
  Ki: > 500 µM

## O=C(O)c1cc(S(=O)(=O)Nc2ccc(Oc3ccccc3)cc2)c2ccccc2c1O [3bb; SF-5-299]
Mcl-1
  Mcl-1 Exp ΔG: -8.10 kcal/mol

## O=C(O)c1cc(S(=O)(=O)N2CCN(Cc3ccccc3)CC2)c2ccccc2c1O [3k; SF-5-307]
Mcl-1
  Mcl-1 Exp ΔG: -7.45 kcal/mol

## COc1cc(N(CC(C)C)S(=O)(=O)c2ccc(Oc3ccccc3)cc2)ccc1C(=O)O [LC-5-106 19]
Mcl-1; [1]
  Ki: 107 ± 31.1 µM

## CC(C)CN(c1ccc(C(=O)O)c(O)c1)S(=O)(=O)c1ccc(Br)cc1 [LC-5-012 13ae]
Mcl-1; [1]
  Ki: 17 ± 1.5 µM

## O=C(O)c1cc(S(=O)(=O)Nc2ccc(C(F)(F)F)cc2)c2ccccc2c1O [Compound 3w, 1-Hydroxy-4-(N-(4-(trifluoromethyl)phenyl)sulfamoyl)-2-naphthoic Acid]
Mcl-1; [1]
  Ki: 2.5 ± 0.65 µM

## CC(C)CN(c1ccc(C#N)c(O)c1)S(=O)(=O)c1ccc(Oc2ccccc2)cc1 [LC-5-050 23]
Mcl-1; [1]
  Ki: > 500 µM

## O=C(O)c1cc(S(=O)(=O)N2CCN(c3ccccc3)CC2)c2ccccc2c1O [3j; EW-2-051]
Mcl-1
  Mcl-1 Exp ΔG: -7.29 kcal/mol

## CN(C)S(=O)(=O)c1cc(C(=O)O)c(O)c2ccccc12 [Compound 3h, 4-(N,N-Dimethylsulfamoyl)-1-hydroxy-2-naphthoic Acid]
Mcl-1; [1]
  Ki: 25.7 ± 4.86 µM

## CC(C)CN(c1ccc(Br)cc1)S(=O)(=O)c1cc(C(=O)O)c(O)c2ccccc12 [Compound 3ca, 4-(N-(4-Bromophenyl)-N-isobutylsulfamoyl)-1-hydroxy-2-naphthoic Acid]
Mcl-1; [1]
  Ki: 0.566 µM
Mcl-1
  Mcl-1 Exp ΔG: -8.52 kcal/mol

## O=C(O)C1Cc2ccccc2N(S(=O)(=O)c2ccccc2)C1 (racemic) [±-8a]
Mcl-1; FPC assay, read-out: Mcl-1 Ki
  Ki: 193 µM
Mcl-1; [1]
  Ki: 193 ± 24 µM

## CC(C)CN(c1cccc(C(=O)O)c1)S(=O)(=O)c1ccc(F)cc1 [4jc177-6 18ad]
Mcl-1; [1]
  Ki: > 500 µM

## O=C(O)c1cc(S(=O)(=O)Nc2cccc(-c3ccccc3)c2)c2ccccc2c1O [3s; LC-3-192]
Mcl-1
  Mcl-1 Exp ΔG: -7.81 kcal/mol

## Cc1cc(OCCCN2CC(C(=O)O)Cc3ccccc32)cc(C)c1Cl (racemic) [±-11]
Mcl-1; [1]
  Ki: 7.77 ± 1.39 µM

## O=C(O)c1cc(S(=O)(=O)NCc2ccccc2)c2ccccc2c1O [Compound 3c, 4-(N-Benzylsulfamoyl)-1-hydroxy-2-naphthoic Acid]
Mcl-1; [1]
  Ki: 56.3 ± 2.1 µM

## O=C(O)c1ccc(N(Cc2ccccc2)S(=O)(=O)c2ccc(-c3ccccc3)cc2)cc1O [LC-4-112 13cb]
Mcl-1; [1]
  Ki: 1.71 ± 0.144 µM

## O=C(O)c1cc(S(=O)(=O)N2CCN(c3ccccc3)CC2)c2ccccc2c1O [Compound 3j, 1-Hydroxy-4-((4-phenylpiperazin-1-yl)sulfonyl)-2-naphthoic Acid]
Mcl-1; [1]
  Ki: 4.54 ± 3.86 µM
